Measured values published in publication PMC9884426, “A phase 1 clinical trial of the repurposable acetyllysine mimetic, n-methyl-2-pyrrolidone (NMP), in relapsed or refractory multiple myeloma” (Clinical Epigenetics, 2023).
“And” between values parts separate entries of the source, which are not always exact repeats. Equal entries are not always repeated.

Key:
[1] = system: relapsed/refractory multiple myeloma (RR–MM); test: Phase 1 trial of oral NMP: efficacy (IMWG response, progression-free and overall survival); assay type: in vivo, human
Method: This was a phase 1, open-label dose-escalation trial of orally administered NMP in patients with relapsed/refractory multiple myeloma (RR–MM). Eligible patients were ≥ 18 years old with Eastern Cooperative Oncology Group (ECOG) < 2 and histologically confirmed plasma cell myeloma defined by WHO 2008 criteria with measurable disease (defined by serum M-protein > 5 g/L, urine M-protein > 200 mg/24 h, involved serum free light chain > 100 mg/L or measurable soft tissue plasmacytoma). Patients were required to have relapsed following prior treatment and/or be refractory to or intolerant of both bortezomib and lenalidomide and must have undergone autologous stem cell transplant (unless deemed ineligible at investigator discretion). Exclusion criteria included: central nervous system involvement, active second malignancy within two years, uncontrolled medical conditions contraindicating an investigational agent due to inadequate organ function and concomitant exposure to anti-myeloma therapies.
The primary study endpoint was to determine the MTD of orally administered NMP in patients with RR–MM. Secondary endpoints included safety, PK analyses, IMWG defined response rate and exploratory immunological biomarkers. Adverse events were defined according to Common Terminology Criteria for Adverse Events (CTCAE version 4.03). Haematological DLTs were defined as grade 4 neutropenia unresponsive to G-CSF, grade 4 thrombocytopenia and febrile neutropenia. Non-haematological DLTs were grade 3 or higher and considered probably related to study drug and not attributable to disease progression and those resulting treatment delays greater than two weeks due to drug-related toxicity. Self-limited (< 24 h) gastrointestinal side effects (e.g. nausea, diarrhoea) responding to supportive measures were not classified as DLTs.
Pharmaceutical grade NMP stock solution (Ashland, Columbus, OH, USA) was diluted in ORA SWEET® SF (Medical Flavouring Systems, Vic, Australia) oral syrup vehicle and sterile water to a final concentration of 50 mg/mL and dispensed weekly in amber glass bottles for storage a room temperature. […] Intra-patient dose escalation at 100 mg increments was also permitted whereby the MTD had not been determined and the patient tolerated two consecutive cycles without DLT or an objective disease response. […]
The study was planned to recruit up to 20 patients, 15 in the dose finding cohort and five as a dose expansion. […] Time to progression was calculated from the first day of treatment to progression using the Kaplan–Meier method. Flow cytometry and gene expression data were analysed using GraphPad Prism (version 6.0; GraphPad Software, San Diego, CA). Data were analysed using Wilcoxon’s matched pairs signed rank test compared with baseline samples (*p < 0.05).

[2] = set-up: method as in PMID 9029058; conditions: human, after a single 100 mg oral dose of NMP; cited from earlier work

In the case of CN1CCCC1=O [NMP, N-methyl-2-pyrrolidone], the Median overall survival ([1]; 13 RR–MM patients, 95% CI 9.7– > 44.5 months, median follow-up 43.5 months) is reported as 33.1 months and 33 months, the Median progression-free survival ([1]; 13 RR–MM patients, range 29–539 days) is reported as 57 days and the “IMWG objective disease response (partial response or better), ORR” value ([1]; 13 patients, 95% CI 0–25%) is reported as 0%. The “best response of stable disease (SD), patients” value ([1]; nine of 13 patients, 95% CI 39–91%) was 69% and the “amount found in urine” value [2] was 0.8%.
